Patent US20100242139A1, “XENOHORMESIS BASED COMPOSITIONS AND METHODS” (President and Fellows of Harvard College, priority 2006, published 2010)

What was measured:
Assay type in all cases: biochemical
ZAP-70(h) = ZAP-70(h) (Homo sapiens, UniProt P43403); experiment: kinase panel activity, ZAP-70(h); conditions: compound at 20 μM; vs reference with no compound
PAK6(h) = PAK6(h) (Homo sapiens, UniProt Q9NQU5); experiment: kinase panel activity, PAK6(h); conditions: compound at 20 μM; vs reference with no compound
ALK4(h) = ALK4(h) (Homo sapiens, UniProt P36896); experiment: kinase panel activity, ALK4(h); conditions: compound at 20 μM; vs reference with no compound
SAPK2b(h) = SAPK2b(h) (Homo sapiens, UniProt Q15759); experiment: kinase panel activity, SAPK2b(h); conditions: compound at 20 μM; vs reference with no compound
PKBγ(h) = PKBγ(h) (Homo sapiens, UniProt Q9Y243); experiment: kinase panel activity, PKBγ(h)
NEK2(h) = NEK2(h) (Homo sapiens, UniProt P51955); experiment: kinase panel activity, NEK2(h); conditions: compound at 20 μM; vs reference with no compound
LKB1(h) = LKB1(h) (Homo sapiens, UniProt Q15831); experiment: kinase panel activity, LKB1(h); conditions: compound at 20 μM; vs reference with no compound
CDK3/cyclinE(h) = CDK3/cyclinE(h) (Homo sapiens, UniProt Q00526); experiment: kinase panel activity, CDK3/cyclinE(h); conditions: compound at 20 μM; vs reference with no compound
JNK3(h) = JNK3(h) (Homo sapiens, UniProt P53779); experiment: kinase panel activity, JNK3(h); conditions: compound at 20 μM; vs reference with no compound
PDGFRβ(h) = PDGFRβ(h) (Homo sapiens, UniProt P09619); experiment: kinase panel activity, PDGFRβ(h); conditions: compound at 20 μM; vs reference with no compound
DAPK2(h) = DAPK2(h) (Homo sapiens, UniProt Q9UIK4); experiment: kinase panel activity, DAPK2(h); conditions: compound at 20 μM; vs reference with no compound
Pim-2(h) = Pim-2(h) (Homo sapiens, UniProt Q9P1W9); experiment: kinase panel activity, Pim-2(h); conditions: compound at 20 μM; vs reference with no compound
MAPK2(h) = MAPK2(h) (Homo sapiens, UniProt P28482); experiment: kinase panel activity, MAPK2(h); conditions: compound at 20 μM; vs reference with no compound
PKBα(h) = PKBα(h) (Homo sapiens, UniProt P31749); experiment: kinase panel activity, PKBα(h)
PKCα(h) = PKCα(h) (Homo sapiens, UniProt P17252); experiment: kinase panel activity, PKCα(h); conditions: compound at 20 μM; vs reference with no compound
Pim-1(h) = Pim-1(h) (Homo sapiens, UniProt P11309); experiment: kinase panel activity, Pim-1(h); conditions: compound at 20 μM; vs reference with no compound
NEK3(h) = NEK3(h) (Homo sapiens, UniProt P51956); experiment: kinase panel activity, NEK3(h); conditions: compound at 20 μM; vs reference with no compound
Snk(h) = Snk(h) (Homo sapiens, UniProt Q9NYY3); experiment: kinase panel activity, Snk(h); conditions: compound at 20 μM; vs reference with no compound
SAPK3(h) = SAPK3(h) (Homo sapiens, UniProt P53778); experiment: kinase panel activity, SAPK3(h); conditions: compound at 20 μM; vs reference with no compound
PDK1(h) = PDK1(h) (Homo sapiens, UniProt O15530); experiment: kinase panel activity, PDK1(h); conditions: compound at 20 μM; vs reference with no compound
CDK2/cyclinA(h) = CDK2/cyclinA(h) (Homo sapiens, UniProt P24941); experiment: kinase panel activity, CDK2/cyclinA(h); conditions: compound at 20 μM; vs reference with no compound
CDK1/cyclinB(h) = CDK1/cyclinB(h) (Homo sapiens, UniProt P06493); experiment: kinase panel activity, CDK1/cyclinB(h); conditions: compound at 20 μM; vs reference with no compound
IKKβ(h) = IKKβ(h) (Homo sapiens, UniProt O14920); experiment: kinase panel activity, IKKβ(h); conditions: compound at 20 μM; vs reference with no compound
IKKα(h) = IKKα(h) (Homo sapiens, UniProt O15111); experiment: kinase panel activity, IKKα(h); conditions: compound at 20 μM; vs reference with no compound
NEK7(h) = NEK7(h) (Homo sapiens, UniProt Q8TDX7); experiment: kinase panel activity, NEK7(h); conditions: compound at 20 μM; vs reference with no compound
NEK6(h) = NEK6(h) (Homo sapiens, UniProt Q9HC98); experiment: kinase panel activity, NEK6(h); conditions: compound at 20 μM; vs reference with no compound
NLK(h) = NLK(h) (Homo sapiens, UniProt Q9UBE8); experiment: kinase panel activity, NLK(h); conditions: compound at 20 μM; vs reference with no compound
IRR(h) = IRR(h) (Homo sapiens, UniProt P14616); experiment: kinase panel activity, IRR(h); conditions: compound at 20 μM; vs reference with no compound
ALK(h) = ALK(h) (Homo sapiens, UniProt Q9UM73); experiment: kinase panel activity, ALK(h); conditions: compound at 20 μM; vs reference with no compound
SIK(h) = SIK(h) (Homo sapiens, UniProt P57059); experiment: kinase panel activity, SIK(h); conditions: compound at 20 μM; vs reference with no compound
cKit(h) = cKit(h) (Homo sapiens, UniProt P10721); experiment: kinase panel activity, cKit(h); conditions: compound at 20 μM; vs reference with no compound
SGK2(h) = SGK2(h) (Homo sapiens, UniProt Q9HBY8); experiment: kinase panel activity, SGK2(h); conditions: compound at 20 μM; vs reference with no compound
PKG1β(h) = PKG1β(h) (Homo sapiens, UniProt Q13976); experiment: kinase panel activity, PKG1β(h); conditions: compound at 20 μM; vs reference with no compound
Tie2(h) = Tie2(h) (Homo sapiens, UniProt Q02763); experiment: kinase panel activity, Tie2(h); conditions: compound at 20 μM; vs reference with no compound
JNK2α2(h) = JNK2α2(h) (Homo sapiens, UniProt P45984); experiment: kinase panel activity, JNK2α2(h); conditions: compound at 20 μM; vs reference with no compound
JNK1α1(h) = JNK1α1(h) (Homo sapiens, UniProt P45983); experiment: kinase panel activity, JNK1α1(h); conditions: compound at 20 μM; vs reference with no compound
MST2(h) = MST2(h) (Homo sapiens, UniProt Q13188); experiment: kinase panel activity, MST2(h); conditions: compound at 20 μM; vs reference with no compound
p70S6K(h) = p70S6K(h) (Homo sapiens, UniProt P23443); experiment: kinase panel activity, p70S6K(h); conditions: compound at 20 μM; vs reference with no compound
Rsk2(h) = Rsk2(h) (Homo sapiens, UniProt P51812); experiment: kinase panel activity, Rsk2(h); conditions: for percent activity of Rsk2(h): compound at 20 μM, vs reference with no compound
TBK1(h) = TBK1(h) (Homo sapiens, UniProt Q9UHD2); experiment: kinase panel activity, TBK1(h); conditions: compound at 20 μM; vs reference with no compound
[1] = compound at 20 μM, vs reference with no compound

Sequence of Rsk2(h) (P51812 whole entry): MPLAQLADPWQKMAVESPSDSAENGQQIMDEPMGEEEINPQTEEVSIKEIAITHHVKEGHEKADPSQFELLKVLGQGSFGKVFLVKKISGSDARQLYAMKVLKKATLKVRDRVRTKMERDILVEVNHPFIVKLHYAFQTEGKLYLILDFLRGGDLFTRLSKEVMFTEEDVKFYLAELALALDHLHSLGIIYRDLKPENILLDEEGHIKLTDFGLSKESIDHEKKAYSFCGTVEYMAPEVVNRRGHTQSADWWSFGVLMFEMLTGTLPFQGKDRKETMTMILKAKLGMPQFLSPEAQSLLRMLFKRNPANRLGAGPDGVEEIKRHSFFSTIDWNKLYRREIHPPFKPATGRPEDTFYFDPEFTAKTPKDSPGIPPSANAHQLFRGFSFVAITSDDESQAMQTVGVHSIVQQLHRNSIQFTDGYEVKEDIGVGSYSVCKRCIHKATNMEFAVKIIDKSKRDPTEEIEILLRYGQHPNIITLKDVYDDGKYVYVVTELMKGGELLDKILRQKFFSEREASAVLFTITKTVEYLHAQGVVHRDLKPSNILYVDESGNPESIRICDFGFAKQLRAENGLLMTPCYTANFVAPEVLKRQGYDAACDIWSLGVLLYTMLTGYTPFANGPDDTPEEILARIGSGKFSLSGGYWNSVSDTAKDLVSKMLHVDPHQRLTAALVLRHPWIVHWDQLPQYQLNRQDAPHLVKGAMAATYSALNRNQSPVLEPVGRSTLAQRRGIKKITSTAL
Sequence of PDK1(h) (O15530 whole entry): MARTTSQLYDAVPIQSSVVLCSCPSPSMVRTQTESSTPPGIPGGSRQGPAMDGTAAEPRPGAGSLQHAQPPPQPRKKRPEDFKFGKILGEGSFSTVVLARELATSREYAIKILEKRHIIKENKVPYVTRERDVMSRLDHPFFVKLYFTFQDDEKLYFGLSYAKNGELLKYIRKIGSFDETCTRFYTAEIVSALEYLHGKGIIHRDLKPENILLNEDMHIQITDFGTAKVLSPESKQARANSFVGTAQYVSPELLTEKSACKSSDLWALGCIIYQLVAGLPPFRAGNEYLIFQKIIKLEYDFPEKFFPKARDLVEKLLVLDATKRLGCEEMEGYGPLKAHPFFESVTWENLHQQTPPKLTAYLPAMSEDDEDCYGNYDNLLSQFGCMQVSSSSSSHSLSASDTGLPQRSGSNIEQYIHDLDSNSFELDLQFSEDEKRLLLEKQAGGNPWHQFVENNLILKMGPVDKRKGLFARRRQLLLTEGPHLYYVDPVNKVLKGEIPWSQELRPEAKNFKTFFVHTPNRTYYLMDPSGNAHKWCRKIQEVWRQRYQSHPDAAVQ
Sequence of LKB1(h) (Q15831 whole entry): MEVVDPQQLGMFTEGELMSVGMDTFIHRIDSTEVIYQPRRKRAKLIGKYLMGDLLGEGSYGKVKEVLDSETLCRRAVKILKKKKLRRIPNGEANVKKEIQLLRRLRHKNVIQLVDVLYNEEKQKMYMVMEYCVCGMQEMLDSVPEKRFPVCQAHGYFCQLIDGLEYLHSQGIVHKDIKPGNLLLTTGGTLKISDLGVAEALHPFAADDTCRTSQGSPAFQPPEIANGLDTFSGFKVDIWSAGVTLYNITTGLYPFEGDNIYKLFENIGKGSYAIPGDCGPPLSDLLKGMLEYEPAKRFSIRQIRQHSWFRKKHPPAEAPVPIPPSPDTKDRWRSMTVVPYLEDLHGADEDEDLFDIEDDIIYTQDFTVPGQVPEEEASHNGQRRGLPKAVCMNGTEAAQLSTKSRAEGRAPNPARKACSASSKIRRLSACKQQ
Sequence of LKB1(h) (Q7RTN6 whole entry partner): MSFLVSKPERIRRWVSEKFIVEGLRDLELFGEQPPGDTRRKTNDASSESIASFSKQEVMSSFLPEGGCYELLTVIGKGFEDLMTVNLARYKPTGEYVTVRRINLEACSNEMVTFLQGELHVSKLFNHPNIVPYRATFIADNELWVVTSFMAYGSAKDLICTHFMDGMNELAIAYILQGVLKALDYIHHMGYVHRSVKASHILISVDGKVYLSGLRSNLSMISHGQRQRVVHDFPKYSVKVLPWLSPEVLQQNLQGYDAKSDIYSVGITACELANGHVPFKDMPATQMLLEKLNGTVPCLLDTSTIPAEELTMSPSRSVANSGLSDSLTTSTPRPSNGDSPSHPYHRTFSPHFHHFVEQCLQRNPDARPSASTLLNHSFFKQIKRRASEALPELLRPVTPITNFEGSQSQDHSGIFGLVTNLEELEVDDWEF
Sequence of LKB1(h) (Q9Y376 whole entry partner): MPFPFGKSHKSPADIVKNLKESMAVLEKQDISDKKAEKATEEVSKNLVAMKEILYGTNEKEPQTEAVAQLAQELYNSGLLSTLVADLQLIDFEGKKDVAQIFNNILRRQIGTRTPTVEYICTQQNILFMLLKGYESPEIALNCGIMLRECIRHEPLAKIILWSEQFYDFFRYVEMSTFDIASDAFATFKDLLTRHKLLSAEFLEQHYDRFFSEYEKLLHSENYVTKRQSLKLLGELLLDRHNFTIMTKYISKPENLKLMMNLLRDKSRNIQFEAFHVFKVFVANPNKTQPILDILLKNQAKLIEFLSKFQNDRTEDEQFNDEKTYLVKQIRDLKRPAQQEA
Sequence of NEK2(h) (P51955 whole entry): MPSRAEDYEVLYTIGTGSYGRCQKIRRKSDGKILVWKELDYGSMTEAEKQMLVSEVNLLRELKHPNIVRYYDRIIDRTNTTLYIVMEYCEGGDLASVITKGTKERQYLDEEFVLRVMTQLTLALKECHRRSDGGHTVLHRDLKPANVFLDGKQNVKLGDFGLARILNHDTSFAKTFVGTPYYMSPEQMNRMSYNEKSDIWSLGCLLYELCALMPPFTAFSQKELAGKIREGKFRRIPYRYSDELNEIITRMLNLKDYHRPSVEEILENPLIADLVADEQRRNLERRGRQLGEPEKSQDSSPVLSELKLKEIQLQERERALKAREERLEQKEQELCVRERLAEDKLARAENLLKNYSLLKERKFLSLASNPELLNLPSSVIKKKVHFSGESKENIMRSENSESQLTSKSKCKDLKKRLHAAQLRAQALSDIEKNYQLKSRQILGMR
Sequence of ZAP-70(h) (P43403 whole entry): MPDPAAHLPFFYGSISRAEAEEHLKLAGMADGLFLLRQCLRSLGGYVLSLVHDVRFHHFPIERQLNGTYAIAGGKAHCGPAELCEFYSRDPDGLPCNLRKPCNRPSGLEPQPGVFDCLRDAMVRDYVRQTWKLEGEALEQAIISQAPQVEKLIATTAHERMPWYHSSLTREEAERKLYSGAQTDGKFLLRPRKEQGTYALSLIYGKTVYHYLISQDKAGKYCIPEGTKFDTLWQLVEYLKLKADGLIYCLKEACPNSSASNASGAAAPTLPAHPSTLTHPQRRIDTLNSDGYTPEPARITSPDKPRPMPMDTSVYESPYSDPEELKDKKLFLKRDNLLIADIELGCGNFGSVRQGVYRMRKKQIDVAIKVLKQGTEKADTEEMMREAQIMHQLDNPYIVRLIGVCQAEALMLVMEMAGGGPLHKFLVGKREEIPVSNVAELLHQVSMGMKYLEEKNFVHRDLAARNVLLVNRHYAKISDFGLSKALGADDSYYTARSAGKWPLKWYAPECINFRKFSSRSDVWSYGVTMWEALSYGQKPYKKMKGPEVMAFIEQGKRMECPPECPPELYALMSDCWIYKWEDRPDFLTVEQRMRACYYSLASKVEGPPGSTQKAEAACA
Sequence of SAPK2b(h) (Q15759 whole entry): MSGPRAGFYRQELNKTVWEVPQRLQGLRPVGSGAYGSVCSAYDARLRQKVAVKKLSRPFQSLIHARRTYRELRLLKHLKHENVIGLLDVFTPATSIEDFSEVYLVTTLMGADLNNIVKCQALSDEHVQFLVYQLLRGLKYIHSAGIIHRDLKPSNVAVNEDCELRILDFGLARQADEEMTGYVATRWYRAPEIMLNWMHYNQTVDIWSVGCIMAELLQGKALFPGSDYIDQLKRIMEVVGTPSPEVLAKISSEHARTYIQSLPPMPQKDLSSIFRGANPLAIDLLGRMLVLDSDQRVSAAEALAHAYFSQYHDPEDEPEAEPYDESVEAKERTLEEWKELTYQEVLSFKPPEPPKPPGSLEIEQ
Sequence of JNK3(h) (P53779 whole entry): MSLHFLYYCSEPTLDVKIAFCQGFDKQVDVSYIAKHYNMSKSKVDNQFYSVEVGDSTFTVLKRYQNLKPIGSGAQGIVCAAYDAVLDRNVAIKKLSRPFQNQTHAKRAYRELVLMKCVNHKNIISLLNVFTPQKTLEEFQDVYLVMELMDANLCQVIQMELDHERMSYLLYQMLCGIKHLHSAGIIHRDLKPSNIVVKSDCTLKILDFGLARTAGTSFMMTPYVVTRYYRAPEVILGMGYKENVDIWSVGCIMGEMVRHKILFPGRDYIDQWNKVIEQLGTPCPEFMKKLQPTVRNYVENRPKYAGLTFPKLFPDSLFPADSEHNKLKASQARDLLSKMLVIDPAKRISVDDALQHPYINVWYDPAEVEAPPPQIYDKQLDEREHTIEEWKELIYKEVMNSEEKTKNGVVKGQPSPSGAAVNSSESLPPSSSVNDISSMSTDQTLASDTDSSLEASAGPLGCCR
Sequence of DAPK2(h) (Q9UIK4 whole entry): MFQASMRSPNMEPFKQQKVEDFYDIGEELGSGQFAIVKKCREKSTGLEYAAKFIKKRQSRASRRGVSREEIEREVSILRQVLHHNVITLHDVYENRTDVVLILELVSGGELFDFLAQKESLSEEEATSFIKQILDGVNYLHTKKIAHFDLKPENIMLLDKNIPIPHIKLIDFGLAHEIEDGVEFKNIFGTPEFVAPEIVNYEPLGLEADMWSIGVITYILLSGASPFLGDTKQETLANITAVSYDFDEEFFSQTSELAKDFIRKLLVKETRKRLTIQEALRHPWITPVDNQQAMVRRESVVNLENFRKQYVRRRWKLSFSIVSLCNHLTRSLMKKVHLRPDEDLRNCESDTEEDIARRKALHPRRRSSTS

Compound: O=C(O)[C@H]1O[C@@H](Oc2ccc(/C=C/c3cc(O)cc(O)c3)cc2)[C@H](O)[C@@H](O)[C@@H]1O [Res 4′-Gluc, resveratrol-4-glucuronide]
- percent activity of ZAP-70(h) (ZAP-70(h)): 125%
- percent activity of PAK6(h) (PAK6(h)): 128%
- percent activity of ALK4(h) (ALK4(h)): 104%
- percent activity of SAPK2b(h) (SAPK2b(h)): 111%
- percent activity of PKBγ(h) (PKBγ(h); [1]): 101%
- percent activity of NEK2(h) (NEK2(h)): 103%
- percent activity of LKB1(h) (LKB1(h)): 95%
- percent activity of CDK3/cyclinE(h) (CDK3/cyclinE(h)): 101%
- percent activity of JNK3(h) (JNK3(h)): 105%
- percent activity of PDGFRβ(h) (PDGFRβ(h)): 119%
- percent activity of DAPK2(h) (DAPK2(h)): 92%
- percent activity of Pim-2(h) (Pim-2(h)): 76%
- percent activity of MAPK2(h) (MAPK2(h)): 105%
- percent activity of PKBα(h) (PKBα(h); [1]): 96%
- percent activity of PKCα(h) (PKCα(h)): 100%
- percent activity of Pim-1(h) (Pim-1(h)): 31%
- percent activity of NEK3(h) (NEK3(h)): 105%
- percent activity of Snk(h) (Snk(h)): 87%
- percent activity of SAPK3(h) (SAPK3(h)): 106%
- percent activity of PDK1(h) (PDK1(h)): 97%
- percent activity of CDK2/cyclinA(h) (CDK2/cyclinA(h)): 98%
- percent activity of CDK1/cyclinB(h) (CDK1/cyclinB(h)): 104%
- percent activity of IKKβ(h) (IKKβ(h)): 98%
- percent activity of IKKα(h) (IKKα(h)): 113%
- percent activity of NEK7(h) (NEK7(h)): 112%
- percent activity of NEK6(h) (NEK6(h)): 107%
- percent activity of NLK(h) (NLK(h)): 99%
- percent activity of IRR(h) (IRR(h)): 93%
- percent activity of ALK(h) (ALK(h)): 87%
- percent activity of SIK(h) (SIK(h)): 74%
- percent activity of cKit(h) (cKit(h)): 100%
- percent activity of SGK2(h) (SGK2(h)): 91%
- percent activity of PKG1β(h) (PKG1β(h)): 58%
- percent activity of Tie2(h) (Tie2(h)): 76%
- percent activity of JNK2α2(h) (JNK2α2(h)): 123%
- percent activity of JNK1α1(h) (JNK1α1(h)): 91%
- percent activity of MST2(h) (MST2(h)): 120%
- percent activity of p70S6K(h) (p70S6K(h)): 54%
- percent activity of Rsk2(h) (Rsk2(h)): 100%
- percent activity of TBK1(h) (TBK1(h)): 80%

Compound: Oc1ccc(C=Cc2cc(O)cc(O)c2)cc1 [resveratrol, 3,5,4′-trihydroxystilbene]
- percent activity of ZAP-70(h) (ZAP-70(h)): 141%
- percent activity of PAK6(h) (PAK6(h)): 103%
- percent activity of ALK4(h) (ALK4(h)): 110%
- percent activity of SAPK2b(h) (SAPK2b(h)): 100%
- activity at 20 µM (PKBγ(h); read-out: percent activity of PKBγ(h)): 89%
- percent activity of NEK2(h) (NEK2(h)): 102%
- percent activity of LKB1(h) (LKB1(h)): 102%
- percent activity of CDK3/cyclinE(h) (CDK3/cyclinE(h)): 75%
- percent activity of JNK3(h) (JNK3(h)): 98%
- percent activity of PDGFRβ(h) (PDGFRβ(h)): 119%
- percent activity of DAPK2(h) (DAPK2(h)): 67%
- percent activity of Pim-2(h) (Pim-2(h)): 14%
- percent activity of MAPK2(h) (MAPK2(h)): 101%
- activity at 20 µM (PKBα(h); read-out: percent activity of PKBα(h)): 94%
- percent activity of PKCα(h) (PKCα(h)): 114%
- percent activity of Pim-1(h) (Pim-1(h)): 6%
- percent activity of NEK3(h) (NEK3(h)): 96%
- percent activity of Snk(h) (Snk(h)): 81%
- percent activity of SAPK3(h) (SAPK3(h)): 110%
- percent activity of PDK1(h) (PDK1(h)): 108%
- percent activity of CDK2/cyclinA(h) (CDK2/cyclinA(h)): 80%
- percent activity of CDK1/cyclinB(h) (CDK1/cyclinB(h)): 67%
- percent activity of IKKβ(h) (IKKβ(h)): 116%
- percent activity of IKKα(h) (IKKα(h)): 40%
- percent activity of NEK7(h) (NEK7(h)): 116%
- percent activity of NEK6(h) (NEK6(h)): 140%
- percent activity of NLK(h) (NLK(h)): 30%
- percent activity of IRR(h) (IRR(h)): 40%
- percent activity of ALK(h) (ALK(h)): 39%
- percent activity of SIK(h) (SIK(h)): 76%
- percent activity of cKit(h) (cKit(h)): 68%
- percent activity of SGK2(h) (SGK2(h)): 70%
- percent activity of PKG1β(h) (PKG1β(h)): 56%
- percent activity of Tie2(h) (Tie2(h)): 94%
- percent activity of JNK2α2(h) (JNK2α2(h)): 110%
- percent activity of JNK1α1(h) (JNK1α1(h)): 89%
- percent activity of MST2(h) (MST2(h)): 73%
- percent activity of p70S6K(h) (p70S6K(h)): 21%
- inhibition at 20 µM (Rsk2(h)): 68%
- percent activity of Rsk2(h) (Rsk2(h)): 32%
- percent activity of TBK1(h) (TBK1(h)): 62%
